# Columns and labels:
# Experiment in all cases: relative viability (nuclei count vs DMSO), 5 days (fraction); higher = more cells survive
# [1] = compound: CN1CCN(CC1)C2=CC(=C(C=C2)NC3=NC(=C(S3)C(=O)C4=C(C=CC=C4Cl)Cl)N)OC [XMD14-99] + N=C(N)NC(=N)NCCc1ccccc1 [Phenformin] (partner 250 µM)
# Procedure, shortened: (§1)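 Dosing by pin tool came one day after lung cancer cell lines were seeded in 1536-well plates, using either one drug or a fixed anchor-drug dose plus five library-drug doses (not always all listed) in √10 steps. After 5 days, nuclei were counted on 4× images. Relative viability is treated-well nuclei count divided by vehicle-well nuclei count, and values are medians of duplicate plates.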
# [2] = compound: N[C@@H]1CCCN(c2c(/C=C3\SC(=O)NC3=O)cccc2-c2ccccc2)C1 [AZD1208] + CS(=O)(=O)CCNCc1ccc(-c2ccc3ncnc(Nc4ccc(OCc5cccc(F)c5)c(Cl)c4)c3c2)o1 [Lapatinib] (partner 2 µM)
# Procedure, shortened: as §1
# [3] = compound: N[C@@H]1CCCN(c2c(/C=C3\SC(=O)NC3=O)cccc2-c2ccccc2)C1 [AZD1208] + CC(C)C[C@H](NC(=O)[C@H](Cc1ccccc1)NC(=O)c1cnccn1)B(O)O [Bortezomib] (partner 0.002 µM)
# Procedure, shortened: as §1
# [4] = compound: CN1CCN(CC1)C2=CC(=C(C=C2)NC3=NC(=C(S3)C(=O)C4=C(C=CC=C4Cl)Cl)N)OC [XMD14-99] + Cc1cc(Nc2cc(N3CCN(C)CC3)nc(Sc3ccc(NC(=O)C4CC4)cc3)n2)n[nH]1 [Tozasertib] (partner 0.1 µM)
# Procedure, shortened: as §1
Cell Line,relative viability ([1]; first compound 0.08 µM),relative viability ([1]; first compound 0.8 µM),relative viability ([1]; first compound 2.53 µM),relative viability ([1]; first compound 8 µM),relative viability ([2]; first compound 0.08 µM),relative viability ([2]; first compound 0.253 µM),relative viability ([2]; first compound 0.8 µM),relative viability ([2]; first compound 2.53 µM),relative viability ([2]; first compound 8 µM),relative viability ([3]; first compound 0.08 µM),relative viability ([3]; first compound 0.253 µM),relative viability ([3]; first compound 0.8 µM),relative viability ([3]; first compound 2.53 µM),relative viability ([3]; first compound 8 µM),relative viability ([4]; first compound 0.08 µM),relative viability ([4]; first compound 0.8 µM),relative viability ([4]; first compound 2.53 µM),relative viability ([4]; first compound 8 µM)
201T,0.449,0.441,0.422,0.41,1.03,0.992,1.04,1.08,0.913,1.13,1.14,1.13,1.16,1.13,0.899,0.915,0.886,0.669
A549,0.153,0.16,0.0976,0.133,0.899,0.921,0.859,0.828,0.721,,,,,,,,,
A-427,0.431,0.31,0.259,0.231,1.11,0.988,0.843,1.15,0.815,1,0.939,0.963,0.936,0.884,0.224,0.227,0.201,0.188
ABC-1,0.237,0.203,0.227,0.232,1.14,0.904,1.05,1.09,1.06,0.302,0.31,0.282,0.268,0.213,0.185,0.177,0.235,0.217
BEN,0.26,0.292,0.248,0.257,0.677,0.449,0.524,0.568,0.437,0.796,0.763,0.495,0.636,0.475,0.478,0.471,0.5,0.428
CAL-12T,0.597,0.567,0.525,0.412,0.634,0.771,0.6,0.695,0.588,1.32,1.03,0.887,1.03,1.18,0.331,0.331,0.307,0.3
COR-L23,0.446,0.418,0.372,0.301,0.991,1.18,0.942,1.02,0.916,0.927,1.11,0.888,1.02,0.929,0.18,0.211,0.182,0.151
COR-L 105,0.477,0.494,0.398,0.371,0.366,0.334,0.299,0.29,0.36,0.712,1.01,0.807,0.544,0.673,0.295,0.426,0.33,0.328
Calu-6,,,,,1.04,1.19,1.04,1.08,1.03,1.01,1.02,0.976,1.03,0.929,,,,
ChaGo-K-1,0.474,0.51,0.494,0.388,,,,,,1.21,0.983,1.04,0.975,0.92,0.217,0.199,0.208,0.226
EBC-1,,,,,0.195,0.249,0.193,0.218,0.2,0.597,0.586,0.508,0.456,0.448,,,,
EKVX,0.261,0.246,0.227,0.23,0.194,0.191,0.194,0.168,0.176,1.17,1.21,1.03,1.2,1,0.368,0.378,0.392,0.343
EMC-BAC-2,0.51,0.515,0.445,0.384,0.827,0.889,0.783,0.835,0.723,1.15,1.16,1.05,1.02,0.919,0.28,0.249,0.27,0.254
EPLC-272H,0.284,0.256,0.302,0.347,0.987,0.866,0.841,0.825,0.717,0.878,0.806,0.924,0.927,0.728,0.348,0.307,0.264,0.324
H3255,0.384,0.398,0.337,0.335,0.258,0.231,0.225,0.219,0.22,0.874,0.758,0.667,0.968,0.718,0.721,0.606,0.563,0.454
HARA,0.438,0.486,0.346,0.324,0.727,0.61,0.686,0.737,0.594,1.09,1.12,1.08,1.18,1.19,0.122,0.0974,0.258,0.0954
HCC-15,0.51,0.499,0.419,0.321,0.871,0.858,0.874,0.858,0.831,1.06,1.21,1.07,1.08,0.948,0.421,0.31,0.322,0.199
HCC-44,0.261,0.16,0.303,0.168,1.01,0.987,1.06,0.999,0.947,0.991,0.952,0.857,0.978,0.95,1,0.921,0.929,0.605
HCC-78,0.681,0.551,0.743,0.451,0.779,0.888,0.621,0.845,0.966,0.474,0.586,0.453,0.475,0.529,0.407,0.335,0.398,0.347

Cell Line,relative viability ([1]; first compound 0.08 µM),relative viability ([1]; first compound 0.8 µM),relative viability ([1]; first compound 2.53 µM),relative viability ([1]; first compound 8 µM),relative viability ([2]; first compound 0.08 µM),relative viability ([2]; first compound 0.253 µM),relative viability ([2]; first compound 0.8 µM),relative viability ([2]; first compound 2.53 µM),relative viability ([2]; first compound 8 µM),relative viability ([3]; first compound 0.08 µM),relative viability ([3]; first compound 0.253 µM),relative viability ([3]; first compound 0.8 µM),relative viability ([3]; first compound 2.53 µM),relative viability ([3]; first compound 8 µM),relative viability ([4]; first compound 0.08 µM),relative viability ([4]; first compound 0.8 µM),relative viability ([4]; first compound 2.53 µM),relative viability ([4]; first compound 8 µM)
IA-LM,,,,,0.766,0.948,0.766,0.621,0.633,0.648,0.708,0.876,0.724,0.746,,,,
LCLC-103H,0.294,0.348,0.318,0.298,,,,,,1.01,1.12,1.02,0.949,0.85,0.494,0.487,0.465,0.44
LK-2,0.363,0.368,0.423,0.215,0.738,0.616,0.63,0.39,0.447,,,,,,0.171,0.185,0.171,0.192
NCI-H358,0.306,0.354,0.267,0.217,0.343,0.44,0.38,0.36,0.35,,,,,,0.0889,0.102,0.0882,0.0609
NCI-H441,0.889,0.811,0.738,0.662,,,,,,0.322,0.593,0.419,0.455,0.419,0.693,0.599,0.554,0.354
NCI-H522,0.658,0.616,0.702,0.692,,,,,,,,,,,0.513,0.646,0.712,0.639
NCI-H1299,,,,,0.984,0.938,0.96,1,0.945,1.06,1.07,0.994,0.986,1.02,,,,
NCI-H1395,0.471,0.458,0.404,0.438,1.12,0.918,0.945,1.1,0.812,,,,,,0.689,0.79,0.537,0.651
NCI-H1563,0.606,0.63,0.6,0.585,0.918,1,1.02,1.01,0.915,0.829,0.811,0.958,0.754,0.765,,,,
NCI-H1623,0.573,0.613,0.584,0.54,,,,,,,,,,,0.429,0.429,0.38,0.394
NCI-H1648,,,,,,,,,,,,,,,0.362,0.292,0.316,0.253
NCI-H1703,,,,,0.852,1.04,0.804,1.05,0.626,0.277,0.159,0.246,0.253,0.305,,,,
NCI-H1792,0.286,0.379,0.234,0.167,0.874,0.999,0.885,0.908,0.757,0.999,0.987,0.903,0.958,0.86,,,,
NCI-H1793,0.367,0.337,0.249,0.288,0.563,0.982,0.629,0.678,0.58,,,,,,0.329,0.377,0.34,0.28
NCI-H1944,0.194,0.203,0.173,0.157,0.8,0.788,0.708,0.712,0.484,,,,,,0.226,0.256,0.255,0.235
NCI-H2170,0.393,0.388,0.342,0.3,0.263,0.257,0.257,0.265,0.299,,,,,,0.702,0.667,0.696,0.575
NCI-H2342,0.675,0.782,0.68,0.513,,,,,,,,,,,0.483,0.628,0.591,0.516
SK-MES-1,0.644,0.647,0.575,0.475,0.407,0.418,0.421,0.415,0.374,,,,,,0.925,0.861,0.761,0.5
SW 900,0.6,0.685,0.555,0.402,,,,,,,,,,,0.665,0.453,0.451,0.37

# From the supplement of paper PMC10307832
